{"source": "patent US8048879B2", "about": "“Substituted 4,5,6,7-tetrahydro-isoxazolo[4,5-c]pyridine compounds and use thereof for producing medicaments” (Gruenenthal GmbH, priority 2005, dated 2011)", "key": {"5-HT transporter": {"biological_target": "T1, 5-HT transporter (Rattus norvegicus, UniProt P31652)", "T1 construct": "from tissue; host or cells: rat brain (medulla and pons), synaptosomes, P2 fraction", "T1 sequence (P31652 whole entry)": "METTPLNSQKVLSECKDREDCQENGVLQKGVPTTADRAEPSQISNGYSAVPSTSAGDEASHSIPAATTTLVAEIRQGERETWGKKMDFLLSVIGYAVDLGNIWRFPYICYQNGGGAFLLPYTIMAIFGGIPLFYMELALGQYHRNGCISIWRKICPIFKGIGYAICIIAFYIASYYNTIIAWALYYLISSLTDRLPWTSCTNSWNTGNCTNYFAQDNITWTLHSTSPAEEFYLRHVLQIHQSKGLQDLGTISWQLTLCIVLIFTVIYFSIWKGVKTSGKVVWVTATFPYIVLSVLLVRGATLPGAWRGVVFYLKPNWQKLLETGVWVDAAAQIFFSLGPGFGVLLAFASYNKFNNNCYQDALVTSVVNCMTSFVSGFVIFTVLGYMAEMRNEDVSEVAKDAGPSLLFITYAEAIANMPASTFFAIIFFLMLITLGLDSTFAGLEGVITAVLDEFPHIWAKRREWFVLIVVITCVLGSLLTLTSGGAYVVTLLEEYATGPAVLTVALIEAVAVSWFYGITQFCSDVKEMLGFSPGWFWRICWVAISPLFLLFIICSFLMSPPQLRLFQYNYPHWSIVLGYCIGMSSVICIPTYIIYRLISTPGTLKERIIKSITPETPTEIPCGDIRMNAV", "experiment": "5-HT uptake inhibition, synaptosomes from rat brain (medulla and pons)", "assay_type": "biochemical", "in_short": "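Freshly isolated rat brain synaptosomes (P2 fraction): hypothalamus for NA uptake, medulla/pons for 5-HT uptake. Uptake of [3H]-NA (7.5 min) or [3H]-5-HT (5 min) at room temperature under O2, stopped by filtration over GF/B. Retained radioactivity counted by scintillation.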"}, "NA transporter": {"biological_target": "T2, NA transporter (Rattus norvegicus, UniProt Q9WTR4)", "T2 construct": "from tissue; host or cells: rat brain (hypothalamus), synaptosomes, P2 fraction", "T2 sequence (Q9WTR4 1-597)": "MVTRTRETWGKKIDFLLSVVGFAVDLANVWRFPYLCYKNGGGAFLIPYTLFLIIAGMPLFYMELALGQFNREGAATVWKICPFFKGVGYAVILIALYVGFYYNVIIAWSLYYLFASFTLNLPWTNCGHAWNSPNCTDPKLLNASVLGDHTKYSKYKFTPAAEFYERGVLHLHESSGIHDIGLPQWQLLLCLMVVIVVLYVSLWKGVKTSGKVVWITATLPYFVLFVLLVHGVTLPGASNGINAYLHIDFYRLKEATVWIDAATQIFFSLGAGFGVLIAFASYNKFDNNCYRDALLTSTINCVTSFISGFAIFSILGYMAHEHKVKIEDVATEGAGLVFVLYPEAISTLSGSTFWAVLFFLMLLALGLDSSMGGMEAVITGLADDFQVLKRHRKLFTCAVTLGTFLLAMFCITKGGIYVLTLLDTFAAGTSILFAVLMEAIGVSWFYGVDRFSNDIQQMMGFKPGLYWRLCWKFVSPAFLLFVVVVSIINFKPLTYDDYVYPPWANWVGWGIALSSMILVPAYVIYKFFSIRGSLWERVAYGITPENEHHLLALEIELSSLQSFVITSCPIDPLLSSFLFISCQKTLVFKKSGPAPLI", "experiment": "Noradrenalin (NA) uptake inhibition, synaptosomes from rat brain (hypothalamus)", "assay_type": "biochemical", "text": "b) Method for Determining Noradrenalin and 5-HT Uptake Inhibition:\nSynaptosomes from rat brain regions are freshly isolated for in vitro studies, as described in the publication “The isolation of nerve endings from brain” by E. G. Gray and V. P. Whittaker, J. Anatomy 96, pages 79-88, 1962. The corresponding literature description is hereby introduced as a reference and is deemed to be part of the disclosure.\nThe tissue (hypothalamus for the determination of noradrenalin uptake inhibition and medulla and pons for the determination of 5-HT uptake inhibition) is homogenised in ice-cooled 0.32 M sucrose (100 mg of tissue/1 mL) in a glass homogeniser with Teflon pestle using five complete up and down strokes at 840 revolutions/minute.\nThe homogenate is centrifuged at 4° C. for 10 minutes at 1000 g. After subsequent centrifugation at 17000 g for 55 minutes, the synaptosomes (P2 fraction) are obtained, which are resuspended in 0.32 M […] (0.5 mL/100 mg of original weight).\nThe particular uptake is measured in a 96-well microtitre plate. The volume is 250 μL and the incubation proceeds at room temperature (approx. 20-25° C.) under an O2 atmosphere.\nThe incubation time is 7.5 minutes for [^3H]-NA and 5 minutes for [^3H]-5-HT. The 96 samples are then filtered through a Unifilter GF/B® microtitre plate (Packard) and washed with 200 mL of incubated buffer using a “Brabdel MPXRI-96T Cell-Harvester”. The Unifilter GF/B plate is dried for 1 hour at 55° C. The plate is then sealed with a Back Seal® (Packard) and 35 μL of scintillation fluid are added per well (Ultima Gold®, Packard). After sealing with a top Seal® (Packard) and establishing an equilibrium (around 5 hours), radioactivity is determined in a “Trilux 1450 Microbeta” (Wallac).\nThe quantity of protein used in the above determination corresponds to the values known from the literature, as for example described in “Protein measurement with the folin phenol reagent”, Lowry et al., J. Biol. Chem., 193, 265-275, 1951.\nA detailed description of the method may additionally be found in the literature, for example in M. Ch. Frink, H.-H. Hennies, W. Engelberger, M. Haurand and B. Wilffert (1996) Arzneim.-Forsch./Drug Res. 46 (III), 11, 1029-1036.\nThe following characteristics were determined for the NA or 5-HT transporter: […]"}}, "note": "Structures can show the parent of a compound that is named as a salt.", "data": [{"smiles": "CC(=O)c1ccc(N2CCN(C(=O)c3noc4c3CN(S(=O)(=O)c3ccc(C)cc3)CC4)CC2)cc1", "note": "[Example 86, 1-(4-{4-[5-(Toluene-4-sulfonyl)-4,5,6,7-tetrahydro-isoxazolo[4,5-c]pyridine-3-carbonyl]-piperazin-1-yl}-phenyl)-ethanone]", "values": [{"measurement": "inhibition at 10 µM", "setting": "5-HT transporter", "result": 86, "unit": "%"}, {"measurement": "melting point", "result": 187.8, "unit": "°C"}]}, {"smiles": "O=C(c1noc2c1CN(S(=O)(=O)c1ccc3ccccc3c1)CC2)N1CCN(c2nccs2)CC1", "note": "[Example 143, (5-(naphthalen-2-ylsulfonyl)-4,5,6,7-tetrahydroisoxazolo[4,5-c]pyridin-3-yl)(4-(thiazol-2-yl)piperazin-1-yl)methanone]", "values": [{"measurement": "inhibition at 10 µM", "setting": "NA transporter", "result": 44, "unit": "%"}, {"measurement": "inhibition at 10 µM", "setting": "5-HT transporter", "result": 29, "unit": "%"}]}, {"smiles": "Cc1cc(C)c(S(=O)(=O)N2CCc3onc(C(=O)N4CCN(CCCN(C)C)CC4)c3C2)c(C)c1", "note": "[Example 144, (4-(3-(dimethylamino)propyl)piperazin-1-yl)(5-(mesitylsulfonyl)-4,5,6,7-tetrahydroisoxazolo[4,5-c]pyridin-3-yl)methanone dihydrochloride]", "values": [{"measurement": "inhibition at 10 µM", "setting": "NA transporter", "result": 24, "unit": "%"}, {"measurement": "inhibition at 10 µM", "setting": "5-HT transporter", "result": 21, "unit": "%"}]}, {"smiles": "Cc1cc(C)c(S(=O)(=O)N2CCc3onc(C(=O)N4CCC(CCN5CCCC5)CC4)c3C2)c(C)c1", "note": "[Example 146, (5-(mesitylsulfonyl)-4,5,6,7-tetrahydroisoxazolo[4,5-c]pyridin-3-yl)(4-(2-(pyrrolidin-1-yl)ethyl)piperidin-1-yl)methanone]", "values": [{"measurement": "inhibition at 10 µM", "setting": "NA transporter", "result": 42, "unit": "%"}, {"measurement": "inhibition at 10 µM", "setting": "5-HT transporter", "result": 53, "unit": "%"}]}, {"smiles": "O=C(c1noc2c1CN(S(=O)(=O)c1ccc(Cl)c(Cl)c1)CC2)N1CCC(CCN2CCCC2)CC1", "note": "[Example 147, (5-(3,4-dichlorophenylsulfonyl)-4,5,6,7-tetrahydroisoxazolo[4,5-c]pyridin-3-yl)(4-(2-(pyrrolidin-1-yl)ethyl)piperidin-1-yl)methanone]", "values": [{"measurement": "inhibition at 10 µM", "setting": "NA transporter", "result": 34, "unit": "%"}, {"measurement": "inhibition at 10 µM", "setting": "5-HT transporter", "result": 35, "unit": "%"}]}, {"smiles": "O=C(c1noc2c1CN(S(=O)(=O)c1ccc3ccccc3c1)CC2)N1CCC(CCN2CCCC2)CC1", "note": "[Example 148, (5-(naphthalen-2-ylsulfonyl)-4,5,6,7-tetrahydroisoxazolo[4,5-c]pyridin-3-yl)(4-(2-(pyrrolidin-1-yl)ethyl)piperidin-1-yl)methanone]", "values": [{"measurement": "inhibition at 10 µM", "setting": "NA transporter", "result": 49, "unit": "%"}, {"measurement": "inhibition at 10 µM", "setting": "5-HT transporter", "result": 67, "unit": "%"}]}, {"smiles": "Cl.O=C(c1noc2c1CN(S(=O)(=O)c1cccc3ccccc13)CC2)N1CCC(CCN2CCCC2)CC1", "note": "[Example 149, (5-(Naphthalene-1-ylsulfonyl)-4,5,6,7-tetrahydroisoxazolo[4,5-c]pyridin-3-yl)(4-(2-(pyrrolidin-1-yl)ethyl)piperidin-1-yl)methanone hydrochloride]", "values": [{"measurement": "inhibition at 10 µM", "setting": "NA transporter", "result": 54, "unit": "%"}, {"measurement": "inhibition at 10 µM", "setting": "5-HT transporter", "result": 68, "unit": "%"}]}, {"smiles": "CC(NC(=O)N1CCc2onc(C(=O)NCc3ccccc3)c2C1)c1ccccc1", "note": "(stereo not drawn) [Example 150, N^3-benzyl-N^5-(1-phenylethyl)-6,7-dihydroisoxazolo[4,5-c]pyridine-3,5(4H)-dicarboxamide]", "values": [{"measurement": "inhibition at 10 µM", "setting": "NA transporter", "result": 27, "unit": "%"}, {"measurement": "inhibition at 10 µM", "setting": "5-HT transporter", "result": 58, "unit": "%"}]}, {"smiles": "COc1ccc(NC(=O)N2CCc3onc(C(=O)NCc4ccccc4)c3C2)cc1", "note": "[Example 151, N^3-benzyl-N^5-(4-methoxyphenyl)-6,7-dihydroisoxazolo[4,5-c]pyridine-3,5(4H)-dicarboxamide]", "values": [{"measurement": "inhibition at 10 µM", "setting": "NA transporter", "result": 34, "unit": "%"}, {"measurement": "inhibition at 10 µM", "setting": "5-HT transporter", "result": 36, "unit": "%"}]}, {"smiles": "Cc1ccc(NC(=O)c2noc3c2CN(S(=O)(=O)c2ccc(C)cc2)CC3)cc1", "note": "[Example 152, N-p-tolyl-5-tosyl-4,5,6,7-tetrahydroisoxazolo[4,5-c]pyridine-3-carboxamide]", "values": [{"measurement": "inhibition at 10 µM", "setting": "NA transporter", "result": 24, "unit": "%"}, {"measurement": "inhibition at 10 µM", "setting": "5-HT transporter", "result": 29, "unit": "%"}]}, {"smiles": "COCCNC(=O)c1noc2c1CN(C(=O)c1ccc(C(F)(F)F)c(F)c1)CC2", "note": "[Example 153, 5-(3-fluoro-4-(trifluoromethyl)benzoyl)-N-(2-methoxyethyl)-4,5,6,7-tetrahydroisoxazolo[4,5-c]pyridine-3-carboxamide]", "values": [{"measurement": "inhibition at 10 µM", "setting": "NA transporter", "result": -12, "unit": "%"}, {"measurement": "inhibition at 10 µM", "setting": "5-HT transporter", "result": 37, "unit": "%"}]}, {"smiles": "COc1ccc(NC(=O)N2CCc3onc(C(=O)NCc4ccc(S(N)(=O)=O)cc4)c3C2)cc1", "note": "[Example 154, N^5-(4-methoxyphenyl)-N^3-(4-sulfamoylbenzyl)-6,7-dihydroisoxazolo[4,5-c]pyridine-3,5(4H)-dicarboxamide]", "values": [{"measurement": "inhibition at 10 µM", "setting": "NA transporter", "result": -4, "unit": "%"}, {"measurement": "inhibition at 10 µM", "setting": "5-HT transporter", "result": -8, "unit": "%"}]}, {"smiles": "O=C(NCCN1CCCC1)c1noc2c1CN(C(=O)COc1cccc(Cl)c1)CC2", "note": "[Example 155, 5-(2-(3-chlorophenoxy)acetyl)-N-(2-(pyrrolidin-1-yl)ethyl)-4,5,6,7-tetrahydroisoxazolo[4,5-c]pyridine-3-carboxamide]", "values": [{"measurement": "inhibition at 10 µM", "setting": "NA transporter", "result": 70, "unit": "%"}, {"measurement": "inhibition at 10 µM", "setting": "5-HT transporter", "result": 92, "unit": "%"}]}, {"smiles": "O=C(Nc1ccccc1)c1noc2c1CN(C(=O)c1ccccc1F)CC2", "note": "[Example 156, 5-(2-fluorobenzoyl)-N-phenyl-4,5,6,7-tetrahydroisoxazolo[4,5-c]pyridine-3-carboxamide]", "values": [{"measurement": "inhibition at 10 µM", "setting": "NA transporter", "result": 23, "unit": "%"}, {"measurement": "inhibition at 10 µM", "setting": "5-HT transporter", "result": 10, "unit": "%"}]}, {"smiles": "Cc1ccc(S(=O)(=O)N2CCc3onc(C(=O)NCc4ccc(S(N)(=O)=O)cc4)c3C2)cc1", "note": "[Example 157, N-(4-sulfamoylbenzyl)-5-tosyl-4,5,6,7-tetrahydroisoxazolo[4,5-c]pyridine-3-carboxamide]", "values": [{"measurement": "inhibition at 10 µM", "setting": "NA transporter", "result": 45, "unit": "%"}, {"measurement": "5-HT uptake (rat), 10 μM, % inhibition", "setting": "5-HT transporter; 10 µM", "result": 15, "unit": "%"}]}]}
